Test results reported in patent US20140155376A1, “PYRROLOPYRAZINE KINASE INHIBITORS” (Hoffmann-La Roche Inc., priority 2010, published 2014).

Molecular target: T1, JAK3 (recombinant human kinase domain; h-jak3(810-1124)) (Homo sapiens, UniProt P52333)
T1 construct: h-jak3(810- 1124)-sf9-c; made in house; host or cells: Sf9 insect cells
Test: Determination of IC50 of Janus Kinase (JAK) inhibition: JAK3, radioactive end-point assay with 33P-ATP
Assay type: biochemical
Details: JAK3 kinase domain; ATP 1.5 uM, peptide 50 uM, 20 minutes, room temperature, 10% DMSO; read-out: Ic50 h-jak3(810-1124)-sf9-c:no additive

T1 sequence (P52333 810-1124): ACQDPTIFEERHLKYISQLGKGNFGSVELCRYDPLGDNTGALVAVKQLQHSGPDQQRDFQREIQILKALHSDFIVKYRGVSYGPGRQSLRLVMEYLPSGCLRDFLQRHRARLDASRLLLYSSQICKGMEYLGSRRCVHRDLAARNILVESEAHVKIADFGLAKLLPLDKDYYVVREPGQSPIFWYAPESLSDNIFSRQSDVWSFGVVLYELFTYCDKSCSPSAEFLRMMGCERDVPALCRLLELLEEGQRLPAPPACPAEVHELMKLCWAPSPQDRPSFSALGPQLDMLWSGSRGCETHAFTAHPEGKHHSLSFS

SMILES	IC50 [nM]
CC(C)[C@H](C)NC(=O)c1c[nH]c2ncc(Oc3ccccc3)nc12 [Example I-122, 2-Phenoxy-5H-pyrrolo[2,3-b]pyrazine-7-carboxylic acid ((S)-1,2-dimethyl-propyl)-amide]	63.8
COc1ccccc1Oc1cnc2[nH]cc(C(=O)NC(C)C)c2n1 [Example I-256, 2-(2-Methoxy-phenoxy)-5H-pyrrolo[2,3-b]pyrazine-7-carboxylic acid isopropylamide]	931
CCNC(=O)c1c[nH]c2ncc(Oc3ccc(C#N)cc3)nc12 [Example I-267, 2-(4-Cyano-phenoxy)-5H-pyrrolo[2,3-b]pyrazine-7-carboxylic acid ethylamide]	2360
CC(NC(=O)c1c[nH]c2ncc(Oc3ccc(F)cc3)nc12)C1CC1 (stereo not shown) [Example I-113, 2-(4-Fluoro-phenoxy)-5H-pyrrolo[2,3-b]pyrazine-7-carboxylic acid (1-cyclopropyl-ethyl)-amide]	35.7
CCNC(=O)c1c[nH]c2ncc(Oc3cccc(C(C)(C)C)c3)nc12 [Example I-247, 2-(3-tert-Butyl-phenoxy)-5H-pyrrolo[2,3-b]pyrazine-7-carboxylic acid ethylamide]	6460
CCNC(=O)c1c[nH]c2ncc(Oc3cccc(C(C)C)c3)nc12 [Example I-250, 2-(3-Isopropyl-phenoxy)-5H-pyrrolo[2,3-b]pyrazine-7-carboxylic acid ethylamide]	4590
C[C@H](NC(=O)c1c[nH]c2ncc(-c3ccc(C(=O)N4C5CCC4CC5)s3)nc12)C(C)(C)C [Example I-177, 2-[5-(7-Aza-bicyclo[2.2.1]heptane-7-carbonyl)-thiophen-2-yl]-5H-pyrrolo[2,3-b]pyrazine-7-carboxylic acid ((S)-1,2,2-trimethyl-propyl)-amide]	0.32
C[C@H](NC(=O)c1c[nH]c2ncc(Oc3ccccc3)nc12)C(C)(C)C [Example I-120, 2-Phenoxy-5H-pyrrolo[2,3-b]pyrazine-7-carboxylic acid ((S)-1,2,2-trimethyl-propyl)-amide]	24.4
CC(Cn1cccn1)NC(=O)c1ccc(-c2cnc3[nH]cc(C(=O)N[C@@H](C)C(C)(C)C)c3n2)s1 (stereo partly drawn) [Example I-158, 2-[5-(1-Methyl-2-pyrazol-1-yl-ethylcarbamoyl)-thiophen-2-yl]-5H-pyrrolo[2,3-b]pyrazine-7-carboxylic acid ((S)-1,2,2-trimethyl-propyl)-amide]	0.32
CC[C@@](C)(O)[C@H](C)NC(=O)c1c[nH]c2ncc(C3CC3)nc12 [Example I-34, 2-Cyclopropyl-5H-pyrrolo[2,3-b]pyrazine-7-carboxylic acid ((1S,2R)-2-hydroxy-1,2-dimethyl-butyl)-amide]	36.4
C[C@H](NC(=O)c1c[nH]c2ncc(-c3ccc(C(=O)N(C)Cc4ccc(F)cc4)s3)nc12)C(C)(C)C [Example I-205, 2-{5-[(4-Fluoro-benzyl)-methyl-carbamoyl]-thiophen-2-yl}-5H-pyrrolo[2,3-b]pyrazine-7-carboxylic acid ((S)-1,2,2-trimethyl-propyl)-amide]	0.76
C[C@@H](NC(=O)c1c[nH]c2ncc(C3CC3)nc12)C1CCCCC1 [Example I-60, 2-Cyclopropyl-5H-pyrrolo[2,3-b]pyrazine-7-carboxylic acid ((R)-1-cyclohexyl-ethyl)-amide]	15
C[C@H](NC(=O)c1c[nH]c2ncc(-c3ccc(C(=O)N4CC5(COC5)C4)s3)nc12)C(C)(C)C [Example I-217, 2-[5-(2-Oxa-6-aza-spiro[3.3]heptane-6-carbonyl)-thiophen-2-yl]-5H-pyrrolo[2,3-b]pyrazine-7-carboxylic acid ((S)-1,2,2-trimethyl-propyl)-amide]	0.11
C[C@H](NC(=O)c1c[nH]c2ncc(-c3cnn(C)c3)nc12)C(C)(C)C [Example I-141, 2-(1-Methyl-1H-pyrazol-4-yl)-5H-pyrrolo[2,3-b]pyrazine-7-carboxylic acid ((S)-1,2,2-trimethyl-propyl)-amide]	0.19
CC(NC(=O)c1c[nH]c2ncc(Oc3ccc(F)cc3F)nc12)C1CC1 (stereo not shown) [Example I-105, 2-(2,4-Difluoro-phenoxy)-5H-pyrrolo[2,3-b]pyrazine-7-carboxylic acid (1-cyclopropyl-ethyl)-amide]	103
CC(C)NC(=O)c1c[nH]c2ncc(Oc3ccc4ccn(C)c4c3)nc12 [Example I-276, 2-(1-Methyl-1H-indol-6-yloxy)-5H-pyrrolo[2,3-b]pyrazine-7-carboxylic acid isopropylamide]	574
N#CCCNC(=O)c1c[nH]c2ncc(C3CC3)nc12 [Example I-13, 2-Cyclopropyl-5H-pyrrolo[2,3-b]pyrazine-7-carboxylic acid (2-cyano-ethyl)-amide]	436
CC(=O)NC1CCN(C(=O)c2ccc(-c3cnc4[nH]cc(C(=O)N[C@@H](C)C(C)(C)C)c4n3)s2)CC1 [Example I-183, 2-[5-[4-Acetylamino-piperidine-1-carbonyl)-thiophen-2-yl]-5H-pyrrolo[2,3-b]pyrazine-7-carboxylic acid ((S)-1,2,2-trimethyl-propyl)-amide]	0.32
C[C@H](NC(=O)c1c[nH]c2ncc(-c3ccc(C(=O)NCc4cccc(Cl)c4Cl)s3)nc12)C(C)(C)C [Example I-186, 2-[5-(2,3-Dichloro-benzylcarbamoyl)-thiophen-2-yl]-5H-pyrrolo[2,3-b]pyrazine-7-carboxylic acid ((S)-1,2,2-trimethyl-propyl)-amide]	0.46
CCn1cc(-c2cnc3[nH]cc(C(=O)N[C@H](C)C(C)(C)O)c3n2)cn1 [Example I-99, 2-(1-Ethyl-1H-pyrazol-4-yl)-5H-pyrrolo[2,3-b]pyrazine-7-carboxylic acid ((R)-2-hydroxy-1,2-dimethyl-propyl)-amide]	6.61
CCC(NC(=O)c1c[nH]c2ncc(C3CC3)nc12)C1CCCCC1 (stereo not shown) [Example I-75, 2-Cyclopropyl-5H-pyrrolo[2,3-b]pyrazine-7-carboxylic acid (1-cyclohexyl-propyl)-amide]	68.7
Cc1cc(-c2cnc3[nH]cc(C(=O)N[C@@H](C)C(C)(C)C)c3n2)sc1C(=O)N1CC(CO)(CO)C1 [Example I-222, 2-[5-(3,3-Bis-hydroxymethyl-azetidine-1-carbonyl)-4-methyl-thiophen-2-yl]-5H-pyrrolo[2,3-b]pyrazine-7-carboxylic acid ((S)-1,2,2-trimethyl-propyl)-amide]	0.11
C[C@H](NC(=O)c1c[nH]c2ncc(-c3ccc(C(=O)NC4CCOCC4)s3)nc12)C(C)(C)C [Example I-225, 2-[5-(Tetrahydro-pyran-4-ylcarbamoyl)-thiophen-2-yl]-5H-pyrrolo[2,3-b]pyrazine-7-carboxylic acid ((S)-1,2,2-trimethyl-propyl)-amide]	0.19
C[C@H](NC(=O)c1c[nH]c2ncc(-c3ccc(C(=O)NC(C)(C)C)s3)nc12)C(C)(C)C [Example I-157, 2-(5-tert-Butylcarbamoyl-thiophen-2-yl)-5H-pyrrolo[2,3-b]pyrazine-7-carboxylic acid ((S)-1,2,2-trimethyl-propyl)-amide]	0.43
CCCC[C@H](NC(=O)c1c[nH]c2ncc(C3CC3)nc12)C(C)(C)O [Example I-49, 2-Cyclopropyl-5H-pyrrolo[2,3-b]pyrazine-7-carboxylic acid [(S)-1-(1-hydroxy-1-methyl-ethyl)-pentyl]-amide]	453
